The record followed here is publication PMC6273037, “Synthesis, Structure and Cytotoxic Activity of Mono- and Dialkoxy Derivatives of 5,8-Quinolinedione” (Molecules, 2016).

The test system of one series is C-32 (human melanoma). In words: WST-1 antiproliferative assay, melanoma C-32. The class given is cell-based. The following applies: WST-1 test, incubation time 72 h, read-out: Human Cell Line/IC50 ± SD C-32. The method, then:
(§1) As a reference, the cytotoxic agent cisplatin was applied.
(§2) The synthesized compounds were tested against tumor cells SNB-19 (human glioblastoma, DSMZ-German Collection of Microorganisms and Cell Cultures, Braunschweig, Germany), MDA-MB-231 (human adenocarcinoma, breast cancer; ATCC), C-32 (human melanoma; ATCC) and nontumor cells HFF-1 (normal human fibroblasts derived from foreskin, ATCC). The cultured cells were kept at 37 °C and in 5% CO2. The cells were seeded (10^3 cells/well/[…] DMEM supplemented with FBS (Fetal Bovine Serum, Lonza) to a final concentration of 10% and streptomycin 10 mg/mL and penicillin 1000 IU/mL (Sigma), using 96-well plates (Corning).
(§3) The antiproliferative effect of the synthesized compounds was determined using the Cell Proliferation Reagent WST-1 assay (Roche Diagnostics, Mannheim, Germany). […] After an exposure to the tested compounds at concentration varying in the range 0.4–400 nM/mL, the cell viability was quantified by a cell proliferation assay. […] The cytotoxic activity of the tested compound was compared to the cisplatin (positive control). The experiments were repeated in triplicate for each concentration of the tested compound. The initial concentration of the tested compounds was 1 mg/mL DMSO. […] Calculations of the IC50 values were performed using the GraphPad Prism 6 (GraphPad Software, San Diego, CA, USA).

For series [1], the system named is SNB-19 (human glioblastoma). In words: WST-1 antiproliferative assay, glioblastoma SNB-19. Conditions: WST-1 test, incubation time 72 h, read-out: Human Cell Line/IC50 ± SD SNB-19. The class given is cell-based. How it is done:
as §1, §2, §3

In series [2] the test system is MDA-MB-231 (human adenocarcinoma, breast cancer). In words: WST-1 antiproliferative assay, breast cancer MDA-MB-231. The following applies: for IC50: WST-1 test, incubation time 72 h, read-out: Human Cell Line/IC50 ± SD MDA-MB-231; for selectivity index (SI): breast cancer (MDA-MB-231) cell line. The class given is cell-based. The method, then:
as §1, §2, §3

Series [3] deals with HFF-1 (normal human fibroblasts). Put plainly: WST-1 antiproliferative assay, normal fibroblasts HFF-1. Type of series: cell-based. The following applies: WST-1 test, incubation time 72 h, Neg = Negative in the concentration used; for IC50: read-out: Human Cell Line/IC50 ± SD HFF-1. How it is done:
as §1, §2, §3

Where two headings read alike, the source gives them in different places.

In the case of “6-Chloro-7-(1-methylbenzyloxy)-5,8-quinolinedione [Compound 9]”, the IC50 with C-32 (human melanoma) stood at 0.81 ± 0.01 µM; in series [1] it was 2.3 ± 0.5 µM; in series [2] it was 271 ± 9.8 µM; in series [3] it was 2 ± 0.3 µM.
Turning to `COC1=C(Cl)C(=O)c2cccnc2C1=O` [Compound 2, 6-Chloro-7-methoxy-5,8-quinolinedione], the melting point fell in the range of 161 to 163 °C. Moreover, in the series on C-32 (human melanoma) (Homo sapiens), the IC50 came out at 19.2 ± 2.1 µM. Besides, the IC50 in series [1] (Homo sapiens, SNB-19) stood at 42.2 ± 0.1 µM. In series [2] (Homo sapiens, MDA-MB-231), the IC50 turned out to be 1.5 ± 0.2 µM. Besides, the “selectivity index (SI)” value in series [2] is recorded as 18.4. For the same molecule, in series [3] (Homo sapiens, HFF-1), the IC50 was determined as 27.6 ± 2.1 µM.
In turn, `CCOC1=C(Cl)C(=O)c2cccnc2C1=O` [Compound 3, 6-Chloro-7-ethoxy-5,8-quinolinedione] displayed a melting point of 112 to 114 °C. In the series on C-32 (human melanoma) (Homo sapiens), the IC50 is 30.7 ± 1.1 µM. The IC50 in series [1] (Homo sapiens, SNB-19) amounted to 10.3 ± 2.4 µM. The IC50 in series [2] (Homo sapiens, MDA-MB-231) worked out at 24 ± 2.8 µM. Further, the IC50 in series [3] (Homo sapiens, HFF-1) was 1.3 ± 0.5 µM.
Molecule `CCCOC1=C(Cl)C(=O)c2cccnc2C1=O` [Compound 4, 6-Chloro-7-propoxy-5,8-quinolinedione] gave a melting point of 121 to 122 °C. In addition, the IC50 in the series on C-32 (human melanoma) (Homo sapiens) turned out to be 0.2 ± 0.01 µM. Moreover, the IC50 in series [1] (Homo sapiens, SNB-19) was 0.36 ± 0.03 µM. Besides, in series [2] (Homo sapiens, MDA-MB-231), the IC50 turned out to be 22.4 ± 2.7 µM. Moreover, the “Human Cell Line/IC50 ± SD HFF-1” value in series [3] is “Neg”.
For `C=CCOC1=C(Cl)C(=O)c2cccnc2C1=O` [Compound 5, 6-Chloro-7-(2-propenoxy)-5,8-quinolinedione] the same measures were 89 to 90 °C, 0.28 ± 0.09 µM, 0.3 ± 0.01 µM, 17.2 ± 2.8 µM and “Neg”.
In turn, `O=C1C(Cl)=C(OCCCl)C(=O)c2ncccc21` [Compound 6, 6-Chloro-7-(2-chloroethoxy)-5,8-quinolinedione] came in with a melting point of 114 to 116 °C. Moreover, the IC50 in the series on C-32 (human melanoma) (Homo sapiens) was determined as 22.8 ± 2.5 µM. Also, the IC50 in series [1] (Homo sapiens, SNB-19) turned out to be 18.3 ± 1.4 µM. The IC50 in series [2] (Homo sapiens, MDA-MB-231) was 17 ± 3 µM. Besides, the IC50 in series [3] (Homo sapiens, HFF-1) worked out at 15.8 ± 1.2 µM.
For `N#CCCOC1=C(Cl)C(=O)c2cccnc2C1=O` [Compound 7, 6-Chloro-7-(2-cyanoethoxy)-5,8-quinolinedione] the same measures were 177 to 179 °C, 119 ± 4.3 µM, 58.3 ± 2.8 µM, 164 ± 3.9 µM and 2.5 ± 0.4 µM.
`O=C1C(Cl)=C(OC2CCCCC2)C(=O)c2ncccc21` [Compound 8, 6-Chloro-7-cyclohexyloxy-5,8-quinolinedione] gave a melting point of 123 to 124 °C. The IC50 with C-32 (human melanoma) (Homo sapiens) stood at 1.4 ± 0.1 µM. In addition, the IC50 in series [1] (Homo sapiens, SNB-19) worked out at 1.8 ± 0.1 µM. The IC50 in series [2] (Homo sapiens, MDA-MB-231) amounted to 3.5 ± 0.3 µM. Moreover, in series [3] (Homo sapiens, HFF-1), the IC50 stood at 13.9 ± 3 µM.
Regarding `COC1=C(OC)C(=O)c2ncccc2C1=O` [Compound 10, 6,7-Dimethoxy-5,8-quinolinedione], the melting point fell in the range of 132 to 133 °C.
`CCOC1=C(OCC)C(=O)c2ncccc2C1=O` [Compound 11, 6,7-Diethoxy-5,8-quinolinedione] displayed a melting point of 69 to 70 °C. Moreover, the IC50 in the series with C-32 (human melanoma) (Homo sapiens) is 17.6 ± 1.6 µM. Besides, the IC50 in series [1] (Homo sapiens, SNB-19) was 2.1 ± 0.1 µM. Besides, the IC50 in series [2] (Homo sapiens, MDA-MB-231) was determined as 18.6 ± 2 µM. In addition, the “Human Cell Line/IC50 ± SD HFF-1” value in series [3] is “Neg”.
For `CCCOC1=C(OCCC)C(=O)c2ncccc2C1=O` [Compound 12, 6,7-Dipropoxy-5,8-quinolinedione] the same measures were 133 to 135 °C, 1.1 ± 0.1 µM, 0.7 ± 0.02 µM, 3 ± 0.3 µM and “Neg”.
`C=CCOC1=C(OCC=C)C(=O)c2ncccc2C1=O` [Compound 13, 6,7-di(2-Propenyloxy)-5,8-quinolinedione]: the melting point lay in the range of 135 to 136 °C. Further, the IC50 in the series with C-32 (human melanoma) (Homo sapiens) worked out at 1.5 ± 0.01 µM. Further, the IC50 in series [1] (Homo sapiens, SNB-19) was 0.2 ± 0.01 µM. Besides, the IC50 in series [2] (Homo sapiens, MDA-MB-231) was determined as 12.6 ± 2.7 µM. For the same molecule, the “Human Cell Line/IC50 ± SD HFF-1” value in series [3] is listed as “Neg”.
Turning to `O=C1C(OCCCl)=C(OCCCl)C(=O)c2ncccc21` [Compound 14, 6,7-di(2-Chloroethoxy)-5,8-quinolinedione], the melting point lay within 189 to 191 °C. Also, the IC50 in the series on C-32 (human melanoma) (Homo sapiens) is 12.1 ± 0.2 µM. In addition, in series [1] (Homo sapiens, SNB-19), the IC50 stood at 3.5 ± 0.3 µM. The IC50 in series [2] (Homo sapiens, MDA-MB-231) turned out to be 10.9 ± 1.4 µM. The IC50 in series [3] (Homo sapiens, HFF-1) was 1.9 ± 0.2 µM.
As to `O=C1C(OCC(F)(F)F)=C(OCC(F)(F)F)C(=O)c2ncccc21` [Compound 15, 6,7-di(2,2,2-Trifluoroethoxy)-5,8-quinolinedione], the melting point lay in the range of 110 to 111 °C. Also, in the series with C-32 (human melanoma) (Homo sapiens), the IC50 was determined as 10.9 ± 1.3 µM. Also, the IC50 in series [1] (Homo sapiens, SNB-19) came out at 14.9 ± 0.7 µM. The IC50 in series [2] (Homo sapiens, MDA-MB-231) turned out to be 2.7 ± 0.1 µM. For the same molecule, in series [2], the “selectivity index (SI)” value was 4.6. Also, in series [3] (Homo sapiens, HFF-1), the IC50 stood at 12.4 ± 1.2 µM.
Regarding `N#CCCOC1=C(OCCC#N)C(=O)c2ncccc2C1=O` [Compound 16, 6,7-di(2-Cyanoethoxy)-5,8-quinolinedione], the melting point was in the range of 45 to 47 °C. In the series with C-32 (human melanoma) (Homo sapiens), the IC50 is 134 ± 10.7 µM. Besides, the IC50 in series [1] (Homo sapiens, SNB-19) came to 204 ± 14.3 µM. Moreover, the IC50 in series [2] (Homo sapiens, MDA-MB-231) is 111 ± 3.7 µM. In addition, in series [3] (Homo sapiens, HFF-1), the IC50 worked out at 18.2 ± 2.6 µM.
As for `O=C1C(OC2CCCCC2)=C(OC2CCCCC2)C(=O)c2ncccc21` [Compound 17, 6,7-Dicyclohexloxy-5,8-quinolinedione], the IC50 stood at 1.4 ± 0.1 µM in the series with C-32 (human melanoma) (Homo sapiens); 1.7 ± 0.3 µM in series [1] (Homo sapiens, SNB-19); 13.8 ± 0.1 µM in series [2] (Homo sapiens, MDA-MB-231). Further, in series [3], the “Human Cell Line/IC50 ± SD HFF-1” value is recorded as “Neg”.
On to `N.N.[Cl][Pt][Cl]` [cisplatin, reference compound], for which the IC50 amounted to 16.4 ± 1.2 µM with C-32 (human melanoma), 18.9 ± 0.4 µM in series [1], 25.5 ± 0.2 µM in series [2] and 9.1 ± 1.8 µM in series [3].
